Assay results published in the supplement of paper PMC10307832.

Columns and labels:
Assay in all cases: relative viability (nuclei count vs DMSO), 5 days (fraction); higher = more cells survive
[1] = compound: C1COCCN1C2=CC(=O)C3=C(O2)C(=CC=C3)C4=CC=CC5=C4SC6=CC=CC=C56
Procedure, shortened: (§1)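 Viability here means nuclei in treated wells divided by nuclei in vehicle wells, reported as the median across plates. Only plates with control CV below 25% and at least one doubling passed. Lung cancer cell lines in 1536-well plates were exposed to five √10-spaced library-drug doses for 5 days and counted from 4× Hoechst images in MetaXpress.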

[2] = compound: CCN(CC)CCCCNc1ncc2cc(-c3cc(OC)cc(OC)c3)c(NC(=O)NC(C)(C)C)nc2n1
Procedure, shortened: as §1

PRIMA-1MET = compound: COCC1(CO)C(=O)C2CCN1CC2 [PRIMA-1MET]
Procedure, shortened: as §1

Zibotentan = compound: COc1nc(C)cnc1NS(=O)(=O)c1cccnc1-c1ccc(-c2nnco2)cc1 [Zibotentan]
Procedure, shortened: as §1

[3] = compound: O=c1cc(-c2cccc3c2Sc2ccccc2S3)oc(N2CCOCC2)c1
Procedure, shortened: as §1

Cell Line	relative viability ([1]; 0.01 µM)	relative viability ([1]; 0.03162 µM)	relative viability ([1]; 0.1 µM)	relative viability ([1]; 0.3162 µM)	relative viability ([1]; 1 µM)	relative viability ([2]; 0.01 µM)	relative viability ([2]; 0.03162 µM)	relative viability ([2]; 0.1 µM)	relative viability ([2]; 0.3162 µM)	relative viability ([2]; 1 µM)	relative viability (PRIMA-1MET; 0.2 µM)	relative viability (PRIMA-1MET; 0.6325 µM)	relative viability (PRIMA-1MET; 2 µM)	relative viability (PRIMA-1MET; 6.325 µM)	relative viability (PRIMA-1MET; 20 µM)	relative viability (Zibotentan; 0.08 µM)	relative viability (Zibotentan; 0.253 µM)	relative viability (Zibotentan; 0.8 µM)	relative viability (Zibotentan; 2.53 µM)	relative viability ([3]; 0.08 µM)	relative viability ([3]; 0.253 µM)	relative viability ([3]; 0.8 µM)	relative viability ([3]; 2.53 µM)	relative viability ([3]; 8 µM)
NCI-H2170	0.969	1.02	0.973	0.947	0.965	1.08	0.976	1.02	1.05	1	1.02	0.848	0.971	1.07	0.946	0.997	0.992	0.968	1	0.946	1.05	1	0.911	0.991
NCI-H2228	1.25	0.89	0.981	0.821	1.03	0.984	1.06	1.26	1.16	0.941	0.99	0.964	1.07	1.06	0.0562	1.09	0.997	0.956	0.994	1.04	1.09	1.02	1.07	1.1
NCI-H2342	1.01	1.04	0.955	0.959	0.875	0.932	0.899	0.971	1.09	1.06	1.07	1.05	0.693	0.974	0.915	0.937	0.945	0.944	0.942	0.836	1.07	0.964	0.982	1.04
NCI-H2347	1.11	0.979	0.957	0.981	0.988	0.998	1.01	1.12	1.15	0.931	0.961	0.959	0.779	1.11	1.02	1.04	0.95	1.12	1.06	0.96	1.07	1.1	1.13	1.13
NCI-H2405	1.03	0.906	1.03	1.1	0.958	0.988	1.03	1.13	1.08	0.982	0.881	0.972	–	0.952	0.509	1.06	0.942	1.03	1.09	0.958	0.998	0.979	0.878	1.14
NCI-H3122	1.01	0.988	1.01	0.961	1.01	1.02	1.04	1.07	1.1	0.967	0.85	0.972	0.948	1.01	1	1.02	1.01	0.978	0.98	1.01	1.02	1.03	1.03	1.08
